SMILES strings stand for the structures. Counter-ions that a name gives are not always drawn.

One may read the ED50 as the midpoint of the dose-response relation.

Format in all cases: in vivo
In series [1] the test system is male Swiss albino mice. Description: Writhing test in mice (phenylbenzoquinone-induced writhing reactions). The conditions noted are these: for inhibition at 40 mg/kg / inhibition at 80 mg/kg / inhibition at 160 mg/kg / ED50: Mus musculus; for inhibition at 40 mg/kg / inhibition at 80 mg/kg / inhibition at 160 mg/kg / Writhing test % Activity: 60 minutes prior to phenylbenzoquinone i.p., inhibition of writhing reactions vs control; for ED50: po; for ED50 / Writhing test ED50: mice; for Writhing test ED50: p.o., in mg/kg. Here is the method:
Ia. Writhing Test in Mice
The Writhing test for the determination of the analgesic activity of the inventive active substance combination is carried out according to the method described in the publication of E. Siegmund et al., Proc. Soc. Exp. Biol. Med. 1957, 95, 729-731 using male Swiss albino mice (20-25 g body weight, obtained from Harlan, S. Feliu de Codinas, Spain). The respective part of the description is hereby incorporated by reference and forms part of the respective disclosure.
The Writhing reactions are induced by intraperitoneal injection of phenylbenzoquinone (25 ml/kg in a 0.02% (volume/volume) ethanolic solution in a 5% (volume/volume) solution in destillated water with Evan's blue in an amount of 0.1% weight/volume) and the writhing reactions are counted during a 15 minute period following the injection. The substances to be tested are orally administered 60 minutes prior to the injection of the phenylbenzoquinone solution. The percentage of the inhibition of the writhing reactions is calculated on the basis of the control group as basis for 0% inhibition.
Background: In writhing tests, fewer writhes than in controls are read as antinociception.

A further series concerns male Wistar albino rats. Description: Determination of ulcerogenic effect in rats. The conditions noted are these: stomach three hours after administration. Here is the method:
II. Determination of Ulcerogenic Effect in Rats The ulcerogenic effect of the inventive active substance combination is determined in male Wistar albino rats (body weight 160-200 g, obtained from Harlan, S. Feliu de Codinas, Spain) according to the method described in the publication of J. L. Wallace et al., […]. 1990, 259, […]-[…]. The respective part of the description is incorporated by reference and forms part of the present disclosure. Prior to the tests the rats are kept in cages for 24 hours with free access to drinking water. Afterwards the substances to be tested are orally administered to the rats in form of a 5% by weight suspension in arabic gum. Three hours after the administration of the respective substances to be tested the rats are sacrificed by inhalation of carbon dioxide, the stomachs are removed, opened along the great curvature, washed with saline solution and extended over a suitable frame. By the use of a Projectt 1.2 image analyzer (Projectt, Barcelona, Spain) the ulcerated areas of the stomachs are determined and their size expressed in mm^2.

In series [2] the test system is male Swiss albino mice. Put plainly: Formaline test in mice. The conditions noted are these: for inhibition at 40 mg/kg: Mus musculus, ip. Here is the method: Ib. Formaline Test in Mice
The Formaline test for the determination of the analgesic activity of the inventive active substance combination is carried out according to the method described in the publication of T. Ohkubo et al., J. Pharmacol. Exp. Ther. 1990, 252, 1261-1268 using male Swiss albino mice (20-25 g body weight, obtained from Harlan, S. Feliu de Codinas, Spain). The respective part of the description is hereby incorporated by reference and forms part of the respective disclosure.
The substances to be tested are intraperitoneally administered to the mice in 5% by weight solution of arabic gum in destined water as vehicle. 15 minutes later 20 μl of a 5% by weight solution of formaline in saline solution is injected into the back of the right paw of the animals. The total time in seconds of licking and/or biting the injected paw is registered in the acute phase, i.e. 0-5 minutes (phase I), and in the chronic phase, i.e. 15-30 (phase II), minutes after injection of the formaline. The percentage of inhibition is calculated based on the medium values of the acute and chronic phases of the control group as 0% inhibition of the primary and secondary response.

The mark [3] stands for this setting: 40 mg/kg i.p., acute phase 0-5 minutes after formaline, inhibition of licking/biting time, read-out: Formaline test % Activity Phase I.
Setting [4] is: read-out: Formaline test % Activity Phase II.

Turning to `O=C(O)Cc1ccccc1Nc1c(Cl)cccc1Cl` [Diclofenac-sodium, diclofenac in form of its sodium salt, reference compound], in the series on male Swiss albino mice [1] (40 mg/kg p.o.), the inhibition at 40 mg/kg turned out to be 19.8%. Also, the inhibition at 80 mg/kg with male Swiss albino mice [1] (80 mg/kg p.o.) was found to be 54.9%. In addition, the inhibition at 160 mg/kg in the series on male Swiss albino mice [1] (160 mg/kg p.o.) came out at 84.1%. In the series with male Swiss albino mice [1], the ED50 came out at 75.1 mg/kg. The Ulcerated area with male Wistar albino rats (40 mg/kg p.o.) was 3.81 mm^2; in the series on male Wistar albino rats (80 mg/kg p.o.), 13.7 mm^2.

For `CC(C)Cc1ccc(C(C)C(=O)O)cc1` (stereo not shown) [Ibuprofen, reference compound], the inhibition at 40 mg/kg in the series with male Swiss albino mice [1] (40 mg/kg p.o.) turned out to be 19.8%. In addition, in the series with male Swiss albino mice [1] (80 mg/kg p.o.), the inhibition at 80 mg/kg worked out at 47.6%. In the series on male Swiss albino mice [1] (160 mg/kg p.o.), the inhibition at 160 mg/kg came to 62.9%. Moreover, the ED50 with male Swiss albino mice [1] was determined as 103 mg/kg.

Take `CC(C)Cc1ccc(C(C)C(=O)O)cc1.[Na]` (stereo not shown) [Ibuprofen-sodium, ibuprofen-sodium, reference compound]: in the series with male Wistar albino rats (80 mg/kg p.o.), the Ulcerated area came out at 5.29 mm^2.

As to `COc1ccc2cc([C@H](C)C(=O)O)ccc2c1` [Naproxen, reference compound], the inhibition at 40 mg/kg amounted to 31.5% in the series on male Swiss albino mice [2] (setting [3]), 18% in the series with male Swiss albino mice [2] (setting [4]) and 32% in the series with male Swiss albino mice [1] (40 mg/kg p.o.). Also, the inhibition at 80 mg/kg in the series with male Swiss albino mice [1] (80 mg/kg p.o.) came out at 51.2%. For the same molecule, in the series with male Swiss albino mice [1] (160 mg/kg p.o.), the inhibition at 160 mg/kg came to 78.5%. Also, in the series on male Swiss albino mice [1], the ED50 turned out to be 71.2 mg/kg. Further, in the series on male Wistar albino rats (80 mg/kg p.o.), the Ulcerated area is given as 10.5 mm^2.

Regarding `CN(C)CCO[C@H](c1ccccc1)c1ccnn1C.O=C(O)Cc1ccccc1Nc1c(Cl)cccc1Cl` [R-(+)-Cizolirtine diclofenacate, R-(+)-5-[α-[2-(Dimethylamino)ethoxy]benzyl]-1-methyl-1H-pyrazole diclofenacate], the “Writhing test % Activity” value was 14.7% in the series on male Swiss albino mice [1] (40 mg/kg p.o.), 57.3% in the series with male Swiss albino mice [1] (80 mg/kg p.o.) and 72.1% in the series on male Swiss albino mice [1] (160 mg/kg p.o.). Further, the “Writhing test ED50” value with male Swiss albino mice [1] is on record as 84. For the same molecule, the Ulcerated area was determined as 2.75 mm^2 in the series with male Wistar albino rats (80 mg/kg p.o.) and 7.24 mm^2 with male Wistar albino rats (160 mg/kg p.o.).

With `CC(C)Cc1ccc([C@H](C)C(=O)O)cc1.CN(C)CCO[C@H](c1ccccc1)c1ccnn1C` [R-(+)-Cizolirtine ibuprofenate, R-(+)-5-[α-[2-(Dimethylamino)ethoxy]benzyl]-1-methyl-1H-pyrazole S-(+)-ibuprofenate], the “Writhing test % Activity” value is 15.9% in the series with male Swiss albino mice [1] (40 mg/kg p.o.), 45% in the series with male Swiss albino mice [1] (80 mg/kg p.o.) and 80.9% in the series with male Swiss albino mice [1] (160 mg/kg p.o.). Also, the “Writhing test ED50” value with male Swiss albino mice [1] worked out at 84.8. In addition, the Ulcerated area in the series with male Wistar albino rats (160 mg/kg p.o.) amounted to 3.21 mm^2.

Consider `CN(C)CCO[C@H](c1ccccc1)c1ccnn1C.COc1ccc2cc([C@H](C)C(=O)O)ccc2c1` [R-(+)-Cizolirtine naproxenate, R-(+)-5-[α-[2-(Dimethylamino)ethoxy]benzyl]-1-methyl-1H-pyrazole naproxenate], for which the “Formaline test % Activity Phase I” value with male Swiss albino mice [2] (40 mg/kg i.p., acute phase 0-5 minutes after formaline, inhibition of licking/biting time) worked out at 49%. For the same molecule, the “Formaline test % Activity Phase II” value with male Swiss albino mice [2] (40 mg/kg i.p., chronic phase 15-30 minutes after formaline, inhibition of licking/biting time) came out at 36%. The “Writhing test % Activity” value in the series with male Swiss albino mice [1] (40 mg/kg p.o.) came out at 32.0%; in the series with male Swiss albino mice [1] (80 mg/kg p.o.), 52.0%; in the series on male Swiss albino mice [1] (160 mg/kg p.o.), 77.3%. Also, the “Writhing test ED50” value with male Swiss albino mice [1] was 71.29. Moreover, the Ulcerated area in the series with male Wistar albino rats (160 mg/kg p.o.) is 6.86 mm^2.

Take `CN(C)CCO[C@H](c1ccccc1)c1ccnn1C` [R-(+)-Cizolirtine, R-(+)5-[α-[2-(Dimethylamino)ethoxy]benzyl]-1-methyl-1H-pyrazole]: the inhibition at 40 mg/kg in the series with male Swiss albino mice [2] (setting [3]) is 83%; in the series on male Swiss albino mice [2] (setting [4]) it was 68.5%; with male Swiss albino mice [1] (40 mg/kg p.o.), 29%. Moreover, in the series on male Swiss albino mice [1] (40 mg/kg p.o.), the “Writhing test % Activity” value is listed as 28.9%. Further, the inhibition at 80 mg/kg with male Swiss albino mice [1] (80 mg/kg p.o.) came out at 49.7%. Moreover, the inhibition at 160 mg/kg in the series on male Swiss albino mice [1] (160 mg/kg p.o.) is 72.5%. Further, the ED50 with male Swiss albino mice [1] is 79 mg/kg. Moreover, the “Writhing test ED50” value in the series with male Swiss albino mice [1] turned out to be 79.

As for `CN(C)CCO[C@@H](c1ccccc1)c1ccnn1C.COc1ccc2cc([C@H](C)C(=O)O)ccc2c1` [S-(−)-Cizolirtine naproxenate, S-(−)-5-[α-[2-(Dimethylamino)ethoxy]benzyl]-1-methyl-1H-pyrazole naproxenate], the “Writhing test % Activity” value with male Swiss albino mice [1] (40 mg/kg p.o.) came out at 26.7%; in the series with male Swiss albino mice [1] (80 mg/kg p.o.) it was 52.4%; with male Swiss albino mice [1] (160 mg/kg p.o.), 68.5%. Further, in the series with male Swiss albino mice [1], the “Writhing test ED50” value is 82.15.

On to `CN(C)CCO[C@@H](c1ccccc1)c1ccnn1C` [S-(−)-Cizolirtine, S-(−)-5-[α-[2-(Dimethylamino)ethoxy]benzyl]-1-methyl-1H-pyrazole], for which the “Writhing test % Activity” value was found to be 29.0% with male Swiss albino mice [1] (40 mg/kg p.o.), 49.7% with male Swiss albino mice [1] (80 mg/kg p.o.) and 59.7% in the series on male Swiss albino mice [1] (160 mg/kg p.o.). Moreover, the “Writhing test ED50” value with male Swiss albino mice [1] was determined as 95.26.
